Like-named read-outs stand apart in the source and are kept apart here. Where only a bound is given, the exact number is not on record here.

For one data set, the target named is T1, TbPTR1 (Trypanosoma brucei brucei, UniProt O76290).
T1 construct: made in house
T1 sequence (O76290 1-268): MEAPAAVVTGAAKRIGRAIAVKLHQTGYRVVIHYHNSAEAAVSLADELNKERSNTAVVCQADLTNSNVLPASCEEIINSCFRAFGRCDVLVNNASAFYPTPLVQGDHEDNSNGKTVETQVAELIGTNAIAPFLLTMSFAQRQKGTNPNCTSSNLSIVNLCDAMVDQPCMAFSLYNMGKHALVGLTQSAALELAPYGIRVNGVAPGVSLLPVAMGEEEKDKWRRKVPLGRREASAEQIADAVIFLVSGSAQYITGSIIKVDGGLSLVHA
Nature of the data set: biochemical. The settings on record: for inhibition at 50 µM: read-out: % Inhibition TbPTR1 at 50 μM; for IC50: dose-response 0.001-100 μM.

Data set [1] has as its system T. b. brucei Lister 427 bloodstream forms. The data set can be described thus: In vitro activity against T. brucei (HTS SYBR Green I growth inhibition assay). The settings on record: Trypanosoma brucei; for inhibition at 50 µM: read-out: % Inhibition T. brucei at 50 μM. The format is cell-based, Trypanosoma brucei brucei.
In another data set the target is T2, hERG (Homo sapiens, UniProt Q12809).
T2 construct: gene KCNH2
Also noted: hERG inhibition liability assay.

The target in another data set is T3, CYP1A2 (Homo sapiens, UniProt P05177).
T3 sequence (P05177 1-516): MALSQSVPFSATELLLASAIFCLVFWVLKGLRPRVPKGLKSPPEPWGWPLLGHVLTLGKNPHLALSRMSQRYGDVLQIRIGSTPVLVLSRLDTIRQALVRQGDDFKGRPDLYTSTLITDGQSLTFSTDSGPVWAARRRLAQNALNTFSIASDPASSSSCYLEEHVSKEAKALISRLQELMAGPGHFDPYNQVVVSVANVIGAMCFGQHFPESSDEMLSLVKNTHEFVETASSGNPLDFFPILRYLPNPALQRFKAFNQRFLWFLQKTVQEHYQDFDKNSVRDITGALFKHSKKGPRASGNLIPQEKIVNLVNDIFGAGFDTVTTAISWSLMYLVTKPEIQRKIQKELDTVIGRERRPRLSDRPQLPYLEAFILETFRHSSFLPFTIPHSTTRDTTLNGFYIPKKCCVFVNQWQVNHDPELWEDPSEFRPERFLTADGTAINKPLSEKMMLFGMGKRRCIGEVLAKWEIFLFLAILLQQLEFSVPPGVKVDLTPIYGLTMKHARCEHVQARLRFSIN
Nature of the data set: in vitro. Also noted: cytochrome P450 isoform inhibition liability assay.

The next data set addresses CYP2C19 (Homo sapiens, UniProt P33261). Nature of the data set: in vitro. Also on record: cytochrome P450 isoform inhibition liability assay.
The target in another data set is CYP2C9 (Homo sapiens, UniProt P11712). Nature of the data set: in vitro. Also noted: cytochrome P450 isoform inhibition liability assay.
A further data set deals with CYP2D6 (Homo sapiens, UniProt P10635). Nature of the data set: in vitro. Also noted: cytochrome P450 isoform inhibition liability assay.
A further data set concerns the target CYP3A4 (Homo sapiens, UniProt P08684). The data set can be described thus: in vitro. Also on record: cytochrome P450 isoform inhibition liability assay.
The target of a further data set is T4, hDHFR (Homo sapiens, UniProt P00374).
T4 construct: gene DHFR
T4 sequence (P00374 1-187): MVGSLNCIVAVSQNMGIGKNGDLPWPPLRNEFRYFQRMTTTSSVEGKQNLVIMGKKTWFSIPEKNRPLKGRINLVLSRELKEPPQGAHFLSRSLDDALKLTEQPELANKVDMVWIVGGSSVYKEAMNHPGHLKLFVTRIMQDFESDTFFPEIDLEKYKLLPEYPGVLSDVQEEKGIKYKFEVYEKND
The data set can be described thus: biochemical. Also noted: human DHFR enzyme inhibition. The procedure:
Figure 10 Summary heat map of the in vitro assays to determine possible liability issues for all synthesized compounds. Assays were performed to assess inhibition of hERG and five CYP isoforms (1A2, 2C9, 2C19, 2D6, and 3A4), growth inhibition of A549 and W1-38 cell lines, and mitochondrial toxicity at 10 μM. The hDHFR inhibition was determined at 100 μM. The data, expressed as percentage values, were organized by adopting a color code for rapid and intuitive visualization. The ideal compound should have all tiles blue, indicating a safe toxicological profile for progressing into the development pipeline. The cells are colored from blue (100% of cell growth at the tested concentration) to red (0% of cell growth at the tested concentration) for A549 and W1-38 and from blue (0% of inhibitory activity at the tested concentration) to red (100% of inhibitory activity at the tested concentration) for CYP isoforms, hERG, hDHFR, and mitochondrial toxicity.

Another data set relates to 786-O. Nature of the data set: cells. Also on record: mitochondrial toxicity in 786-O renal carcinoma cells. The settings on record: Homo sapiens, 786-0; mitochondrial toxicity.
Data set [2] can be described thus: in vitro. The following applies: human, a549 cells; read-out: % cell growth A549 at 10uM. Also on record: cytotoxicity, per cent cell growth of A549 cells.
Data set [3] is described as follows: in vitro. Also noted: cytotoxicity, per cent cell growth of WI-38 fibroblasts. The following applies: human, wi-38 cells; read-out: % cell growth W1-38 at 10uM.
Setting [4] is: 50 μM, standard deviation within ±10% of the value.

Chain of CYP2C9 (P11712 whole entry, canonical isoform): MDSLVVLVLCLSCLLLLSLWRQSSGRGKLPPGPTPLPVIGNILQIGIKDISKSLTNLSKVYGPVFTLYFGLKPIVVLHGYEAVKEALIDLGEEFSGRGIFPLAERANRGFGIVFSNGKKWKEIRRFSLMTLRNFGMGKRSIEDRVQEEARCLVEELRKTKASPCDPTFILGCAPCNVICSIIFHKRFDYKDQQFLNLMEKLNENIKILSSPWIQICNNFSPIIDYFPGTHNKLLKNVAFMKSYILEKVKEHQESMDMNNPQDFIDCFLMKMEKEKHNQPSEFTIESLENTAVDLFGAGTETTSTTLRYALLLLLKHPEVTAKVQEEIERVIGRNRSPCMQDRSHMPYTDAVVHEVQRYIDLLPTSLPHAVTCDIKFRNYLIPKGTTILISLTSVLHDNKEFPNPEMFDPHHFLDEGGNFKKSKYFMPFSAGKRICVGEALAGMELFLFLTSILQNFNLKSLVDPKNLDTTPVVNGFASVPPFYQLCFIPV
Chain of CYP2C19 (P33261 whole entry, canonical isoform): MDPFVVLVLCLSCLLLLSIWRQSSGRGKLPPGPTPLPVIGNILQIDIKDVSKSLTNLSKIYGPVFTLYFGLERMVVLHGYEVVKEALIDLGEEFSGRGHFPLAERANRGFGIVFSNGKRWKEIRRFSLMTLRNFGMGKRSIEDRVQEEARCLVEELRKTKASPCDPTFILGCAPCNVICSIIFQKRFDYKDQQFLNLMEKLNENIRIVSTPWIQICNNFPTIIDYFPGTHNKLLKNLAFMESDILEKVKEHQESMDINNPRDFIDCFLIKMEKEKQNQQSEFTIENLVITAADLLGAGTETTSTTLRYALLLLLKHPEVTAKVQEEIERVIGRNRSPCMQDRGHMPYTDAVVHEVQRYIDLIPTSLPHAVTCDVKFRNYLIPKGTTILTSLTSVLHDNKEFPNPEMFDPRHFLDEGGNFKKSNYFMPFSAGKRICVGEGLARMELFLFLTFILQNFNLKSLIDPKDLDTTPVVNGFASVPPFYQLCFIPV
Chain of CYP3A4 (P08684 whole entry, canonical isoform): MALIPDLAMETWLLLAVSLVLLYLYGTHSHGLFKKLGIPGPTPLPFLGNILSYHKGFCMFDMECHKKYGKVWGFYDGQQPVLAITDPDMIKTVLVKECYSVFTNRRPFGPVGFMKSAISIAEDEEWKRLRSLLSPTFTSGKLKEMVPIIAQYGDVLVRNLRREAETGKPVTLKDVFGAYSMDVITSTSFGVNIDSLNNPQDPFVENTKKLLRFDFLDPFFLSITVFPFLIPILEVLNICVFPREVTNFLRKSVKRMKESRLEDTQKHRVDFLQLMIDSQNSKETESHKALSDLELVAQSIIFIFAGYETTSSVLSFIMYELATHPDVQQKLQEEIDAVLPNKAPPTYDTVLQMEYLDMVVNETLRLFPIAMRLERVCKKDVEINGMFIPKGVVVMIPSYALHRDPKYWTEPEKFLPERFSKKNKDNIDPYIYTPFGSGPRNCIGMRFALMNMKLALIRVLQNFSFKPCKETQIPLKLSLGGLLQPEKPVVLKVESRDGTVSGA
Chain of CYP2D6 (P10635 whole entry, canonical isoform): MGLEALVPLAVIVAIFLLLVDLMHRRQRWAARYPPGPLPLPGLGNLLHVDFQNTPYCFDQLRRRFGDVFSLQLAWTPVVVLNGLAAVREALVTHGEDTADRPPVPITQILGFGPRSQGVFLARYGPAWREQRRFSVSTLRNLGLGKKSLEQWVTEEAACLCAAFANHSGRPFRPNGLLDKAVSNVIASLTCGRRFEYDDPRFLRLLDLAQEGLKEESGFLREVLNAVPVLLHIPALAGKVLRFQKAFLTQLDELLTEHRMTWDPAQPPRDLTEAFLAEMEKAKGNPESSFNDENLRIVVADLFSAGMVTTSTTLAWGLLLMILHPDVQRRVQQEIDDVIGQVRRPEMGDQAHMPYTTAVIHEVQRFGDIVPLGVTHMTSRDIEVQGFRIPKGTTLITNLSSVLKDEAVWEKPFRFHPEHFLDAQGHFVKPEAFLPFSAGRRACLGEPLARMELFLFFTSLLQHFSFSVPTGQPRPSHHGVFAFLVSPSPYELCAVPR
T2 sequence (Q12809 whole entry): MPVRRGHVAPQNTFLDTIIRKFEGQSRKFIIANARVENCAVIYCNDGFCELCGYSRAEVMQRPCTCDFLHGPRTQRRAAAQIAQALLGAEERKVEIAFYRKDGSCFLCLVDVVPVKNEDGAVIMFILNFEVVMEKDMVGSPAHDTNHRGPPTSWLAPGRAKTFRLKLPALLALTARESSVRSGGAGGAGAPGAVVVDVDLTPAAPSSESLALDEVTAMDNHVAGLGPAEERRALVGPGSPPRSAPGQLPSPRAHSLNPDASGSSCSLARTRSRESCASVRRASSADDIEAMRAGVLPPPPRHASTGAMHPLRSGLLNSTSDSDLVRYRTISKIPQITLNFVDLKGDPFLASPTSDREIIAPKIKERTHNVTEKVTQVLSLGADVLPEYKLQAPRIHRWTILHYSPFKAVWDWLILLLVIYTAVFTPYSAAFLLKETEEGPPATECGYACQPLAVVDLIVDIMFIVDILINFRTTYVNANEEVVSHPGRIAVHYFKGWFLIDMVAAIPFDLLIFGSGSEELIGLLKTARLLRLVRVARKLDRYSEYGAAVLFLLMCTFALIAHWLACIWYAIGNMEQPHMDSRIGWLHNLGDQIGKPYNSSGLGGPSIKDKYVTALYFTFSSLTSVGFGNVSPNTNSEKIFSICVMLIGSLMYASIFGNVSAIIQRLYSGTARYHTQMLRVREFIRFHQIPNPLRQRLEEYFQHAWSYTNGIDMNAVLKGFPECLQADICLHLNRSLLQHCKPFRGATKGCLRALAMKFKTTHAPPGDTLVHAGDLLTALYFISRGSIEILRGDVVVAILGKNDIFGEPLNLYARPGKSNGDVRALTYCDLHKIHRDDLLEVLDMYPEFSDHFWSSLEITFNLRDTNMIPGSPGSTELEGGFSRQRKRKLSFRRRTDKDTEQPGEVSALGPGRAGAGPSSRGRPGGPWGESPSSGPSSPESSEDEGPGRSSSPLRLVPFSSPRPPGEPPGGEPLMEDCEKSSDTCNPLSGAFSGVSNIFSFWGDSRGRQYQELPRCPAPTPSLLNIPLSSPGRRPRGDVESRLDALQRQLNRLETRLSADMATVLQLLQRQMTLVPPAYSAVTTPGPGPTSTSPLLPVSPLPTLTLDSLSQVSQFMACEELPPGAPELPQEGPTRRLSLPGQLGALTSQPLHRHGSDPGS

For the compound `Nc1cccc(-c2ccc(-c3nnc(N)s3)cc2)c1` [2b], the inhibition at 50 µM at TbPTR1 (50 μM compound) stood at 16.2 ± 0.5%; in [1] (setting [4]) it was 33.4%. The inhibition at 10 µM is 9.1 ± 4.4% on hERG; 44.6 ± 1.5% on CYP1A2; -3.9 ± 13.3% on CYP2C19; 1.9 ± 1% on CYP2C9; -16.1 ± 6.6% at CYP2D6; 32 ± 3.7% on CYP3A4. The inhibition at 10 µM is 17% on hDHFR and -1 ± 2.2% in the data set with 786-O. For the same compound, the viability at 10 µM in the data set “in vitro [2]” came to 137 ± 11.1%; in the data set “in vitro [3]”, 73.4 ± 2.5%.
`Nc1nnc(-c2cccc(-c3ccccc3)c2)s1` [2c]: the inhibition at 50 µM at TbPTR1 (50 μM compound) is 25.2 ± 1.4%; in data set [1] (setting [4]) it was 14.4%. Further, the inhibition at 10 µM on hERG was determined as 83.7 ± 2.5%; at CYP1A2, 101 ± 1.4%; on CYP2C19, 65.1 ± 6.8%; on CYP2C9 it was 24.1 ± 0.4%; at CYP2D6 it was 48.2 ± 2.3%; on CYP3A4, 59.5 ± 3.7%. In addition, the inhibition at 10 µM in the data set with 786-O was found to be 0%. For the same compound, at hDHFR (25 uM), the inhibition at 25 µM worked out at 23%. The viability at 10 µM in the data set “in vitro [2]” came to 115 ± 5.3%; in the data set “in vitro [3]”, 87.2 ± 13.8%.
Regarding `Nc1nnc(-c2cccc(-c3ccc4c(c3)OCO4)c2)s1` [2g], the inhibition at 50 µM at TbPTR1 (50 μM compound) was 4 ± 0.4%; in [1] (setting [4]), 10.4%. Also, the inhibition at 10 µM turned out to be 27.9 ± 5.2% on hERG; 97.8 ± 1% at CYP1A2; 34.3 ± 3.7% on CYP2C19; 28.7 ± 2.2% at CYP2C9; 27 ± 2.36% at CYP2D6; 28.2 ± 5% at CYP3A4. The inhibition at 10 µM at hDHFR is 12%; in the data set on 786-O, -2.6 ± 13.7%. Moreover, the values for the viability at 10 µM in “in vitro [2]” and in “in vitro [3]” were 116 ± 8.3% and 130 ± 14.1%, respectively.
As for `Nc1nnc(Cc2ccccc2)s1` [3b], the inhibition at 50 µM on TbPTR1 (50 μM compound) is 8.1 ± 0.2%; in [1] (setting [4]), less than 0%. Moreover, the inhibition at 10 µM on hERG was 11.1 ± 5.2%; at CYP1A2, -10.2 ± 1.6%; on CYP2C19, -42.6 ± 5.5%; on CYP2C9, -20.4 ± 1.8%; on CYP2D6, -41.7 ± 3.9%; at CYP3A4 it was -23.7 ± 5.9%. Further, the inhibition at 10 µM in the data set on 786-O was -7.4 ± 11.1%. For the same compound, at hDHFR, the inhibition at 100 µM came out at 6%. Moreover, the viability at 10 µM is 125 ± 4.8% in “in vitro [2]” and 120 ± 1.7% in “in vitro [3]”.
As for `Nc1nnc(/C=C/c2ccccc2)s1` [3h], the inhibition at 50 µM on TbPTR1 (50 μM compound) turned out to be 34.3 ± 1.2%; in [1] (setting [4]), 82.7%. For the same compound, the EC50 in [1] (standard deviation within ±10% of the value, read-out: EC50 T. brucei) worked out at 58 µM. Also, the inhibition at 10 µM at hERG is 58.7 ± 4.9%; at CYP1A2, 25.2 ± 1.1%; on CYP2C19, 7.2 ± 9.8%; at CYP2C9, 4.1 ± 5.9%; on CYP2D6, -22.1 ± 8%; at CYP3A4, 45.9 ± 5.5%. The inhibition at 10 µM against hDHFR was 15%; in the data set on 786-O, -1.3 ± 6.6%. The viability at 10 µM in the data set “in vitro [2]” is 138 ± 5.6%; in the data set “in vitro [3]”, 111 ± 42%.
Turning to `CN(C)CCc1nnc(N)s1` [3i], the inhibition at 50 µM on TbPTR1 is 5.6 ± 0.6%; in data set [1] it was less than 0%. Besides, the inhibition at 10 µM was 0.7 ± 2.8% on hERG; -3.2 ± 4.2% at CYP1A2; -30.1 ± 15.1% at CYP2C19; -13.5 ± 3.9% on CYP2C9; -35.4 ± 5% at CYP2D6; -14.3 ± 3.1% at CYP3A4. Moreover, the inhibition at 10 µM in the data set with 786-O was -12.4 ± 3.4%. Besides, at hDHFR, the inhibition at 100 µM came out at 12%. In addition, the values for the viability at 10 µM in “in vitro [2]” and in “in vitro [3]” were 143 ± 11.8% and 114 ± 22.2%, respectively.
Turning to `Nc1nnc(N)s1` [4a], the inhibition at 50 µM was 14.2 ± 0.8% on TbPTR1 (50 μM compound) and less than 0% in data set [1] (setting [4]). Further, the inhibition at 10 µM on hERG was 4.7 ± 3.6%; at CYP1A2, 40.5 ± 3%; at CYP2C19 it was 62.3 ± 8.3%; on CYP2C9, 46 ± 1.7%; at CYP2D6 it was -15.9 ± 8.6%; on CYP3A4, 53.4 ± 4.4%. Besides, in the data set with 786-O, the inhibition at 10 µM came out at 1.7 ± 6.6%. Moreover, the inhibition at 100 µM against hDHFR amounted to 36%. Moreover, the viability at 10 µM in the data set “in vitro [2]” came to 113 ± 4.4%; in “in vitro [3]”, 81.3 ± 13.5%.
`Nc1nnc(NCc2ccc(Cl)c(Cl)c2)s1` [4e]: the results for the inhibition at 50 µM (on TbPTR1 (50 μM compound); in data set [1] (setting [4])) were 48.5 ± 2.1% and less than 0%, respectively. Besides, 31 µM corresponded to half-maximal inhibition on TbPTR1 (IC50). Further, the inhibition at 10 µM on hERG amounted to 75.6 ± 4.4%; at CYP1A2, 29.1 ± 3.4%; at CYP2C19, 36.8 ± 0.9%; at CYP2C9, 17.6 ± 0.9%; at CYP2D6, 99 ± 0.6%; at CYP3A4, 27.4 ± 6.8%. In addition, the inhibition at 10 µM in the data set with 786-O turned out to be 3.6 ± 8.5%. Moreover, the inhibition at 100 µM against hDHFR turned out to be 24%. In addition, the viability at 10 µM worked out at 106 ± 2.7% in the data set “in vitro [2]” and 68.5 ± 18.8% in the data set “in vitro [3]”.
As for `Nc1nnc(NCc2ccc(C(F)(F)F)cc2)s1` [4f], the inhibition at 50 µM at TbPTR1 (50 μM compound) was 37.7 ± 0.5%; in [1] (setting [4]), less than 0%. This compound also showed an IC50 against TbPTR1 of 48 µM. The inhibition at 10 µM was determined as 69.9 ± 2.3% at hERG; 24.6 ± 2.5% on CYP1A2; 11.9 ± 6.6% on CYP2C19; 19.5 ± 1.3% on CYP2C9; 72.4 ± 3.8% at CYP2D6; 7.8 ± 9.8% on CYP3A4. In the data set on 786-O, the inhibition at 10 µM was found to be 9.6 ± 12.5%. The inhibition at 100 µM against hDHFR amounted to 19%. Besides, the viability at 10 µM in “in vitro [2]” came out at 113 ± 4.8%; in “in vitro [3]”, 80.9 ± 23.6%.
With `N#Cc1ccc(CNc2nnc(N)s2)cc1` [4h], the inhibition at 50 µM on TbPTR1 (50 μM compound) is 34.6 ± 3%; in data set [1] (setting [4]), less than 0%. The IC50 at TbPTR1 came to 70 µM. Also, the inhibition at 10 µM at hERG is 82.6 ± 11.8%; at CYP1A2, 17.1 ± 4.4%; on CYP2C19 it was -2 ± 6.3%; at CYP2C9, 15 ± 1.4%; on CYP2D6, 62.4 ± 2.9%; at CYP3A4 it was 7.2 ± 12.7%. In the data set on 786-O, the inhibition at 10 µM is -0.1 ± 9.4%. At hDHFR, the inhibition at 100 µM turned out to be 17%. Also, the figures for the viability at 10 µM in the data set “in vitro [2]” and in the data set “in vitro [3]” were 105 ± 2.3% and 107 ± 24.9%, respectively.
